Measured values published in article PMC5762309 (Oncotarget, 2017).
Like-named read-outs stand apart in the source and are kept apart here.

Experiments:
[1] = tested on: AKT, S6, ERK, p70S6K and STAT3 phosphorylation; assay: Signaling pathway study in BaF3-TEL-KIT-V559D cells; format: cell-based; settings: KIT-V559D transformed stable BaF3 cells, Western blot
ACVR2B = biological target: T1, ACVR2B (Homo sapiens, UniProt Q13705); assay: KINOMEScan; format: binding; set-up: dose or concentration left out as unconfirmed
T1 construct: purchased DiscoverX KINOMEscan
T1 sequence (Q13705 19-512): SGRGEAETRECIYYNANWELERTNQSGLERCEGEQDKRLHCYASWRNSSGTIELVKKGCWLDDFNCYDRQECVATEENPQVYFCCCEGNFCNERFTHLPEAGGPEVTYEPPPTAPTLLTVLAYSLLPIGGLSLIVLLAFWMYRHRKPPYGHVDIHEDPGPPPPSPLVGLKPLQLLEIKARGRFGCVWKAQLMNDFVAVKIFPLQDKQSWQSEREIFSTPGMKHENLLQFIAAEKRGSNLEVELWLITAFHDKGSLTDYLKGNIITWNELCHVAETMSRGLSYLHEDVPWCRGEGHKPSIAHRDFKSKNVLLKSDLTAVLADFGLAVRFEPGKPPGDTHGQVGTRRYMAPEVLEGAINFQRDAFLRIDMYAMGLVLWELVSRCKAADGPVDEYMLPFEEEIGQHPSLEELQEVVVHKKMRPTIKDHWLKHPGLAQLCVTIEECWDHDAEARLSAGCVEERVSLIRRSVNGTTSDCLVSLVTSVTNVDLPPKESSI

ARK5 = biological target: T2, ARK5 (Homo sapiens, UniProt O60285); assay: KINOMEScan; format: binding; set-up: dose or concentration left out as unconfirmed
T2 construct: purchased DiscoverX KINOMEscan

CAMK1B = biological target: T3, CAMK1B (Homo sapiens, UniProt Q6P2M8); assay: KINOMEScan; format: binding; set-up: dose or concentration left out as unconfirmed
T3 construct: purchased DiscoverX KINOMEscan

CDK2 = biological target: T4, CDK2 (Homo sapiens, UniProt P24941); assay: KINOMEScan; format: binding; set-up: dose or concentration left out as unconfirmed
T4 construct: purchased DiscoverX KINOMEscan

CSNK1G2 = biological target: T5, CSNK1G2 (Homo sapiens, UniProt P78368); assay: KINOMEScan; format: binding; set-up: dose or concentration left out as unconfirmed
T5 construct: purchased DiscoverX KINOMEscan
T5 sequence (P78368 whole entry): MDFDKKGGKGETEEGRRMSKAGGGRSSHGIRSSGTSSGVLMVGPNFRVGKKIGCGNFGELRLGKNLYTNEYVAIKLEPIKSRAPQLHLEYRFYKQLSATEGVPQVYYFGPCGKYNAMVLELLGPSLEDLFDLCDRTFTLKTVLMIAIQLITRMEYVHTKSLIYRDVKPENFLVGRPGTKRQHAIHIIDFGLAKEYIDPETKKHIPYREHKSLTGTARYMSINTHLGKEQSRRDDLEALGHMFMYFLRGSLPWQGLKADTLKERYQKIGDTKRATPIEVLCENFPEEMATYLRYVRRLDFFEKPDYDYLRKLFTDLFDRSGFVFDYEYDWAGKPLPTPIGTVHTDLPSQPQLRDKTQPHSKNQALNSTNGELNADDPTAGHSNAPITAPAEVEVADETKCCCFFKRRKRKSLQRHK

CSNK1G3 = biological target: T6, CSNK1G3 (Homo sapiens, UniProt Q9Y6M4); assay: KINOMEScan; format: binding; set-up: dose or concentration left out as unconfirmed
T6 construct: purchased DiscoverX KINOMEscan

DLK = biological target: T7, DLK (Homo sapiens, UniProt Q12852); assay: KINOMEScan; format: binding; set-up: dose or concentration left out as unconfirmed
T7 construct: purchased DiscoverX KINOMEscan

EGFR(G719C) = biological target: T8, EGFR(G719C) (Homo sapiens, UniProt P00533, G719C); assay: KINOMEScan; format: binding; set-up: dose or concentration left out as unconfirmed
T8 construct: purchased DiscoverX KINOMEscan

EGFR(G719S) = biological target: T9, EGFR(G719S) (Homo sapiens, UniProt P00533, G719S); assay: KINOMEScan; format: binding; set-up: dose or concentration left out as unconfirmed
T9 construct: purchased DiscoverX KINOMEscan

[2] = biological target: T10, EGFR(L747-E749del, A750P) (Homo sapiens, UniProt P00533, A750P/DEL747-749); assay: KINOMEScan; format: binding; set-up: dose or concentration left out as unconfirmed
T10 construct: purchased DiscoverX KINOMEscan

EGFR(L858R,T790M) = biological target: T11, EGFR(L858R,T790M) (Homo sapiens, UniProt P00533, L858R/T790M); assay: KINOMEScan; format: binding
T11 construct: purchased DiscoverX KINOMEscan

EGFR(L861Q) = biological target: T12, EGFR(L861Q) (Homo sapiens, UniProt P00533, L861Q); assay: KINOMEScan; format: binding; set-up: dose or concentration left out as unconfirmed
T12 construct: purchased DiscoverX KINOMEscan

EGFR(S752-I759del) = biological target: T13, EGFR(S752-I759del) (Homo sapiens, UniProt P00533, DEL752-759); assay: KINOMEScan; format: binding; set-up: dose or concentration left out as unconfirmed
T13 construct: purchased DiscoverX KINOMEscan

EGFR(T790M) = biological target: T14, EGFR(T790M) (Homo sapiens, UniProt P00533, T790M); assay: KINOMEScan; format: binding
T14 construct: purchased DiscoverX KINOMEscan

EPHB2 = biological target: T15, EPHB2 (Homo sapiens, UniProt P29323); assay: KINOMEScan; format: binding; set-up: dose or concentration left out as unconfirmed
T15 construct: purchased DiscoverX KINOMEscan
T15 sequence (P29323 19-1055): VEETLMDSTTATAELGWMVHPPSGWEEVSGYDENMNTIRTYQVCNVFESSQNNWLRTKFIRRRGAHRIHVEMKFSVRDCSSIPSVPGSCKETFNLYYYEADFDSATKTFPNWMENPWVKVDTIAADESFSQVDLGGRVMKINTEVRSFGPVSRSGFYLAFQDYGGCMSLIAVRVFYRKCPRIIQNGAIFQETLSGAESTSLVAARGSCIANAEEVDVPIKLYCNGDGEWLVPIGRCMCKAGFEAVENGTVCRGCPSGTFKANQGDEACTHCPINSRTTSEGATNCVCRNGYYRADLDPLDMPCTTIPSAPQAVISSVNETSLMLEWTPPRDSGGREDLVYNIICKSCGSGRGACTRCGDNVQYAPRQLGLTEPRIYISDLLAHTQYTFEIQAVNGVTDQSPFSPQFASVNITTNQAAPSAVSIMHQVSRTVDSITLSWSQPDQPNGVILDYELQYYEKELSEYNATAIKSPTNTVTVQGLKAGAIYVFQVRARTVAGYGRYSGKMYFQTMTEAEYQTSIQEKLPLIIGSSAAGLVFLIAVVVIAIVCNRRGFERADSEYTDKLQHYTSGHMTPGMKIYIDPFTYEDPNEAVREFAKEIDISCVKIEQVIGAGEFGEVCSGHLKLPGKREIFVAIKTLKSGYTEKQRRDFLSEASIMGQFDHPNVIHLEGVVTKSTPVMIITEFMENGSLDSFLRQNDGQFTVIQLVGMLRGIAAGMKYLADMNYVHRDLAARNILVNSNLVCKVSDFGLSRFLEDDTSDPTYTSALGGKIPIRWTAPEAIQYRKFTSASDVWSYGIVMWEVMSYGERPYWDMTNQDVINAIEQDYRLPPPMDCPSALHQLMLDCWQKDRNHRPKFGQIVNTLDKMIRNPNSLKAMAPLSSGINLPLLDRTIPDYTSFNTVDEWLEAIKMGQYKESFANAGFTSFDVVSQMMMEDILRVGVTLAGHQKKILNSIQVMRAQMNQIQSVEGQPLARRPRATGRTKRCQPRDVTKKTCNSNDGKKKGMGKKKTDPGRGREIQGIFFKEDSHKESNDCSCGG

FLT3(ITD,D835V) = assay: KINOMEScan; format: binding; set-up: dose or concentration left out as unconfirmed
IRAK4 = biological target: T16, IRAK4 (Homo sapiens, UniProt Q9NWZ3); assay: KINOMEScan; format: binding; set-up: dose or concentration left out as unconfirmed
T16 construct: purchased DiscoverX KINOMEscan
T16 sequence (Q9NWZ3 whole entry): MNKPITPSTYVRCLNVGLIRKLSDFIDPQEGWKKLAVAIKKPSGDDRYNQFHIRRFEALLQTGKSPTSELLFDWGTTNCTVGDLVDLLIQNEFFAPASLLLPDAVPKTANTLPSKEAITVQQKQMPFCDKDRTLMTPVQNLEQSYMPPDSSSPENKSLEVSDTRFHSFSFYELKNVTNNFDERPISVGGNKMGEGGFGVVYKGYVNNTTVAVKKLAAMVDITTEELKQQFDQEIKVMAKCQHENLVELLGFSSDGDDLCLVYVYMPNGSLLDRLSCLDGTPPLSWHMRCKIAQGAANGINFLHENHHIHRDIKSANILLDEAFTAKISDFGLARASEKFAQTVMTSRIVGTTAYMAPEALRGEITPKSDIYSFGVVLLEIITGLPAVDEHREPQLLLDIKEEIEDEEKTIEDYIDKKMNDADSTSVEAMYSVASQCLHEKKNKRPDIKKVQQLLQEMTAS

ITK = biological target: T17, ITK (Homo sapiens, UniProt Q08881); assay: KINOMEScan; format: binding; set-up: dose or concentration left out as unconfirmed
T17 construct: purchased DiscoverX KINOMEscan

JNK1 = biological target: T18, JNK1 (Homo sapiens, UniProt P45983); assay: KINOMEScan; format: binding; set-up: dose or concentration left out as unconfirmed
T18 construct: purchased DiscoverX KINOMEscan

LZK = biological target: T19, LZK (Homo sapiens, UniProt O43283); assay: KINOMEScan; format: binding; set-up: dose or concentration left out as unconfirmed
T19 construct: purchased DiscoverX KINOMEscan

MET(M1250T) = biological target: T20, MET(M1250T) (Homo sapiens, UniProt P08581, M1250T); assay: KINOMEScan; format: binding; set-up: dose or concentration left out as unconfirmed
T20 construct: purchased DiscoverX KINOMEscan

MST3 = biological target: T21, MST3 (Homo sapiens, UniProt Q9Y6E0); assay: KINOMEScan; format: binding; set-up: dose or concentration left out as unconfirmed
T21 construct: purchased DiscoverX KINOMEscan
T21 sequence (Q9Y6E0 whole entry): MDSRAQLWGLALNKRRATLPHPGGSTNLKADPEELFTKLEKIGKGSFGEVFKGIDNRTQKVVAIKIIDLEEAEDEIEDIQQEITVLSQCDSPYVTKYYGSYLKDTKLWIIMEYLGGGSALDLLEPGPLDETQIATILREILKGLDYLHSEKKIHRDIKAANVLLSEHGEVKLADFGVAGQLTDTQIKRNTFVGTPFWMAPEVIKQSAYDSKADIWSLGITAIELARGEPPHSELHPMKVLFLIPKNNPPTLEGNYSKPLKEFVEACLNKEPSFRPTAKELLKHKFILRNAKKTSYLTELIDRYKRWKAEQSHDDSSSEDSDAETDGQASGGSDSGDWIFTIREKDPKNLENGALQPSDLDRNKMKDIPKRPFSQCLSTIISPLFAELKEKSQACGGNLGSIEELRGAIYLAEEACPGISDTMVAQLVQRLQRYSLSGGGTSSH

p38-alpha = biological target: T22, p38-alpha (Homo sapiens, UniProt Q16539); assay: KINOMEScan; format: binding; set-up: dose or concentration left out as unconfirmed
T22 construct: purchased DiscoverX KINOMEscan
T22 sequence (Q16539 whole entry): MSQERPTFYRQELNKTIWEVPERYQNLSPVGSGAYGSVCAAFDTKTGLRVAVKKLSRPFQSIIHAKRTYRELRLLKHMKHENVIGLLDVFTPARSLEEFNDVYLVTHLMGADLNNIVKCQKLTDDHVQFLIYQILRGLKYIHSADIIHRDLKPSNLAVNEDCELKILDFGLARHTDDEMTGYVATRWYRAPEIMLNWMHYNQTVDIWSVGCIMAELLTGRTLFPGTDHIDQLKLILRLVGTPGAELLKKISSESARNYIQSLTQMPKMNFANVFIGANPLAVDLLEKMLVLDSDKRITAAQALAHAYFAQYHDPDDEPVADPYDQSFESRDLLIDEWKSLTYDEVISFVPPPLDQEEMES

PIKFYVE = biological target: T23, PIKFYVE (Homo sapiens, UniProt Q9Y2I7); assay: KINOMEScan; format: binding; set-up: dose or concentration left out as unconfirmed
T23 construct: purchased DiscoverX KINOMEscan

PIP5K1C = biological target: T24, PIP5K1C (Homo sapiens, UniProt O60331); assay: KINOMEScan; format: binding; set-up: dose or concentration left out as unconfirmed
T24 construct: purchased DiscoverX KINOMEscan
T24 sequence (O60331 whole entry): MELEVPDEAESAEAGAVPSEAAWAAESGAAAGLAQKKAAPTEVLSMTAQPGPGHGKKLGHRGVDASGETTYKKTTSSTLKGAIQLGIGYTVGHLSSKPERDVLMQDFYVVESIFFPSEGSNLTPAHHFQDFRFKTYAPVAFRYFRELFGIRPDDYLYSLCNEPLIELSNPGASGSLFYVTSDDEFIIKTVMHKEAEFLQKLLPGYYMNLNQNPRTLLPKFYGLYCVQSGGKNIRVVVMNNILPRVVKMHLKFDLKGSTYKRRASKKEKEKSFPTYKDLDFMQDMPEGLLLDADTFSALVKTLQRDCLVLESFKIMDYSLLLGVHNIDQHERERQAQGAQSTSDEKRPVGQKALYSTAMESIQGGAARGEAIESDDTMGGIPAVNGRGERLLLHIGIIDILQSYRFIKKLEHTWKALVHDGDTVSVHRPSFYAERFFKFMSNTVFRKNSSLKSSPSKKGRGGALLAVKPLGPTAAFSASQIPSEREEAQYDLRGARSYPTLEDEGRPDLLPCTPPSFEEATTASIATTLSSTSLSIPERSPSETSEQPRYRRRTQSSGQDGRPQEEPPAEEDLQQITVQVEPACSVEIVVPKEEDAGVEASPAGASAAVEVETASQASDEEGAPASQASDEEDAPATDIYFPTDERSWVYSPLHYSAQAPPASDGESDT

PKMYT1 = biological target: T25, PKMYT1 (Homo sapiens, UniProt Q99640); assay: KINOMEScan; format: binding; set-up: dose or concentration left out as unconfirmed
T25 construct: purchased DiscoverX KINOMEscan

[3] = biological target: T26, TYK2(JH2domain-pseudokinase) (Homo sapiens, UniProt P29597); assay: KINOMEScan; format: binding; set-up: dose or concentration left out as unconfirmed
T26 construct: TYK2(JH2domain-pseudokinase); purchased DiscoverX KINOMEscan

WNK1 = biological target: T27, WNK1 (Homo sapiens, UniProt Q9H4A3); assay: KINOMEScan; format: binding; set-up: dose or concentration left out as unconfirmed
T27 construct: purchased DiscoverX KINOMEscan

KIT L576p = KIT L576p (Homo sapiens, UniProt P10721, L576P); assay: KIT auto-phosphorylation in transformed BaF3 cells; settings: 2h
Chain of KIT L576p (P10721 26-976 L576P): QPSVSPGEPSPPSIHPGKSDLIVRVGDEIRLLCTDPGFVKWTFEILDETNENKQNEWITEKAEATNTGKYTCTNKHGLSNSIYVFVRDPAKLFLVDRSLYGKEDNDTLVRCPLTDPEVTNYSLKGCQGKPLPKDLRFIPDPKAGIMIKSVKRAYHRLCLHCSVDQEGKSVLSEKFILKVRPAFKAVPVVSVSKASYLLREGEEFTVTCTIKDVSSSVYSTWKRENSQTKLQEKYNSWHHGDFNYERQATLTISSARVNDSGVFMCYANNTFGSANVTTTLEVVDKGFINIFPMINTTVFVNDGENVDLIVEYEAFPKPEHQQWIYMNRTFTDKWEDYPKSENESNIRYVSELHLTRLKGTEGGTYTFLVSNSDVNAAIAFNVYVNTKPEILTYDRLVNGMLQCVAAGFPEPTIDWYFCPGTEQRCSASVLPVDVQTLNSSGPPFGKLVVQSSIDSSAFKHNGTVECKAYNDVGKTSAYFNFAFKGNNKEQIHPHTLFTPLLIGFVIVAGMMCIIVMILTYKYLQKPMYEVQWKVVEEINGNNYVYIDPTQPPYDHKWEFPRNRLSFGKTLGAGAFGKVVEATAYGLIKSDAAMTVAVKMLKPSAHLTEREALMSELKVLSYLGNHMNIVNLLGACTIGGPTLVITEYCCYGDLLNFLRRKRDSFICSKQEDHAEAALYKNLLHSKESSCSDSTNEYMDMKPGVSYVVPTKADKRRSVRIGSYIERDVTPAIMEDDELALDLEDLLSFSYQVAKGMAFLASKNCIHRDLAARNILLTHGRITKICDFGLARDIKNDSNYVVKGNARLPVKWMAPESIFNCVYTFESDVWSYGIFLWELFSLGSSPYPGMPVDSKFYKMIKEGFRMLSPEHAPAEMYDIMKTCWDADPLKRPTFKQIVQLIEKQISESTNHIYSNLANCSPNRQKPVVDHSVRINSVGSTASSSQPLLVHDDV

KIT N822K = KIT N822K (Homo sapiens, UniProt P10721, N822K); assay: KIT auto-phosphorylation in transformed BaF3 cells
Chain of KIT N822K (P10721 26-976 N822K): as the sequence (P10721 26-976 L576P) above, with P551L, N797K counted along it

KIT wt = KIT wt (Homo sapiens, UniProt P10721); assay: Kd determination by MST; format: binding; set-up: wt KIT residues 544-935 with a His tag; His tag; made in house; host or cells: SF9 insect cells (baculovirus); settings: purified protein

For `COc1cc(C(=O)NCC(=O)Nc2ccc3c(/C=C/c4ccccn4)n[nH]c3c2)cc(OC)c1OC` [CHMFL-KIT-031], the “phosphorylation of downstream mediators AKT, S6, ERK, p70S6K and STAT3” value [1] was “potently inhibited”, the KINOMEScan profiling value (ACVR2B) was 100 and the KINOMEScan profiling value (ARK5) was 97. The KINOMEScan profiling value (CAMK1B) was 83, the KINOMEScan profiling value (CDK2) was 100 and the KINOMEScan profiling value (CSNK1G2) was 100. The KINOMEScan profiling value (CSNK1G3) was 99, the KINOMEScan profiling value (DLK) was 97 and the KINOMEScan profiling value (EGFR(G719C)) was 100. It also gave a KINOMEScan profiling value (EGFR(G719S)) of 95, a KINOMEScan profiling value [2] of 100 and a KINOMEScan profiling value (EGFR(L858R,T790M)) of 75. The KINOMEScan profiling value (EGFR(L861Q)) was 100, the KINOMEScan profiling value (EGFR(S752-I759del)) was 92 and the KINOMEScan profiling value (EGFR(T790M)) was 100. For the same compound, the KINOMEScan profiling value (EPHB2) was 87, the KINOMEScan profiling value (FLT3(ITD,D835V)) was 73 and the KINOMEScan profiling value (IRAK4) was 100. The KINOMEScan profiling value (ITK) was 96, the KINOMEScan profiling value (JNK1) was 94 and the KINOMEScan profiling value (LZK) was 100. It also gave a KINOMEScan profiling value (MET(M1250T)) of 100, a KINOMEScan profiling value (MST3) of 86 and a KINOMEScan profiling value (p38-alpha) of 94. The KINOMEScan profiling value (PIKFYVE) was 87, the KINOMEScan profiling value (PIP5K1C) was 71 and the KINOMEScan profiling value (PKMYT1) was 91. For the same compound, the KINOMEScan profiling value [3] was 100, the KINOMEScan profiling value (WNK1) was 19 and the EC50 (KIT L576p; EC50 pY703 auto-phosphorylation) was > 10 µM. The EC50 (KIT L576p; EC50 pY719 auto-phosphorylation) was 5.9 µM, the EC50 (KIT L576p; EC50 pY823 auto-phosphorylation) was 1.9 µM and the EC50 (KIT N822K) was > 10 µM. The EC50 (KIT N822K; read-out: EC50 pY719 auto-phosphorylation, KIT N822K transformed BaF3 cells, 2h) was > 10 µM, the EC50 (KIT N822K; read-out: EC50 pY823 auto-phosphorylation, KIT N822K transformed BaF3 cells, 2h) was > 10 µM and the Kd (KIT wt) was 6.64 µM.
